The values below come from the RepoRT retention time repository (doi:10.1016/j.chroma.2015.03.063).

Each structure is given as a SMILES string.

One data set is described as follows: Agilent ZORBAX Eclipse Plus C18, 100 × 2.1 mm, 1.8 µm, 25 °C, 0.3 mL/min, estimated dead time 0.73 min; A: water + 0.1% acetic acid; B: methanol; gradient (min/%B) 0/5 6/20 13/35 18/50 24/65 30/90 40/90. Conditions: stereoisomer not certain.
With `O=C(O)c1cccnc1`, the LC retention time is 3.34 min.

Take `COc1cc(C(=O)O)cc(OC)c1O`: the LC retention time is 9.87 min.

In the case of `COc1ccc(-c2coc3cc(O)ccc3c2=O)cc1O`, the LC retention time is 23.6 min.

On to `C[n+]1cccc(C(=O)[O-])c1`, for which the LC retention time is 2.21 min.

For the compound `CC(O)C(N)C(=O)O` (configuration not stated), the LC retention time was 2.12 min.

`O=c1cc[nH]c(=O)[nH]1`: the LC retention time is 4.2 min.

Consider `NC(Cc1c[nH]c2ccccc12)C(=O)O` (configuration not stated), for which the LC retention time was 9.7 min.

Take `CC1OC(OCC2OC(Oc3c(-c4ccc(O)c(O)c4)oc4cc(O)cc(O)c4c3=O)C(O)C(O)C2O)C(O)C(O)C1O` (configuration not stated): the LC retention time is 11.6 min.

With `NC(Cc1ccccc1)C(=O)O` (configuration not stated), the LC retention time is 7.22 min.

Turning to `CSCCC(N)C(=O)O` (configuration not stated), the LC retention time is 3.21 min.

Turning to `COc1ccc(-c2coc3cc(OC4OC(CO)C(O)C(O)C4O)ccc3c2=O)cc1` (configuration not stated), the LC retention time is 21.6 min.

`Nc1ncnc2c1ncn2C1OC(CO)C(O)C1O` (configuration not stated): the LC retention time was 5.25 min.

Take `CCCCC=CC=CC=O`: the LC retention time is 22.7 min.

On to `C=C1CCCC2(C)CC3(O)OC(=O)C(C)=C3CC12` (configuration not stated), for which the LC retention time was 30.1 min.

With `CCC(C)C(N)C(=O)O` (configuration not stated), the LC retention time is 4.67 min.

As to `C[N+](C)(C)CC(=O)[O-]`, the LC retention time was 2.8 min.

With `NC(N)=NCCCC(N)C(=O)O` (configuration not stated), the LC retention time was 2.05 min.

For the compound `OCC1OC(OC2(CO)OC(CO)C(O)C2O)C(O)C(O)C1O` (configuration not stated), the LC retention time is 2.4 min.

In the case of `NC(Cc1ccc(O)cc1)C(=O)O` (configuration not stated), the LC retention time is 4.31 min.

Consider `O=Cc1ccc(CO)o1`, for which the LC retention time is 7.09 min.

`O=C(C=Cc1ccc(O)c(O)c1)OC1CC(O)(C(=O)O)CC(O)C1O` (configuration not stated): the LC retention time is 8.99 min.

As to `NC(=O)CC(N)C(=O)O` (configuration not stated), the LC retention time is 2.11 min.

For the compound `COc1ccc(-c2coc3cc(OC4OC(CO)C(O)C(O)C4O)ccc3c2=O)cc1O` (configuration not stated), the LC retention time was 17.6 min.

With `COc1cc(C=CC(=O)O)ccc1O`, the LC retention time is 11.5 min.

Turning to `CC(C)(O)C1CCC(C)(C2C(O)CC3(C)C4CC(OC5OC(CO)C(O)C(O)C5O)C5C(C)(C)C(OC6OCC(O)C(O)C6O)CCC56CC46CCC23C)O1` (configuration not stated), the LC retention time is 32.2 min.

Regarding `C[N+](C)(C)CCO`, the LC retention time was 2.08 min.

Turning to `OCC1OC(OCC2OC(OC3(CO)OC(CO)C(O)C3O)C(O)C(O)C2O)C(O)C(O)C1O` (configuration not stated), the LC retention time was 2.54 min.

As to `O=c1cc(-c2ccc(O)cc2)oc2cc(OC3OC(CO)C(O)C(O)C3O)cc(O)c12` (configuration not stated), the LC retention time is 18.2 min.

Turning to `NCCCCC(N)C(=O)O` (configuration not stated), the LC retention time was 1.88 min.

On to `Nc1ncnc2nc[nH]c12`, for which the LC retention time was 2.73 min.

As for `COC(=O)C1=COC(OC2OC(CO)C(O)C(O)C2O)C2C(CO)=CCC12` (configuration not stated), the LC retention time is 13.9 min.

Regarding `O=C(O)c1ccc(O)c(O)c1`, the LC retention time is 7.74 min.

On to `CC(C)CC(N)C(=O)O` (configuration not stated), for which the LC retention time was 5.02 min.

The next data set in a line: RP, Thermo Scientific Accucore C18, 150 × 2.1 mm, 2.6 µm, 24 °C, 0.28 mL/min, estimated dead time 0.83 min; A: 90% water + 10% acetonitrile + 10 mM ammonium acetate; B: 20% water + 80% methanol + 10 mM ammonium acetate; gradient (min/%B) 0/0 2.5/0 7.5/30 12.5/30 15/40 20/100 27.5/100. Conditions: stereoisomer not certain.
For the compound `COC12CCC3(CC1C(C)(O)C(C)(C)C)C1Cc4ccc(O)c5c4C3(CCN1CC1CC1)C2O5` (configuration not stated), the LC retention time is 22.2 min.

Turning to `CC(C)(C)NCC(O)COc1cccc2c1CC(O)C(O)C2` (configuration not stated), the LC retention time is 4.97 min.

Turning to `COC(=O)CCc1ccc(OCC(O)CNC(C)C)cc1` (configuration not stated), the LC retention time was 8.1 min.

For `Cc1ccc(C)c(OCCCC(C)(C)C(=O)O)c1`, the LC retention time is 17.9 min.

As to `C#CCN(C)C(C)Cc1ccccc1` (configuration not stated), the LC retention time was 15.1 min.

Turning to `CC(C)NCC(O)COc1cccc2[nH]ccc12` (configuration not stated), the LC retention time is 5.15 min.

`COc1cccc(C2(O)CCCCC2CN(C)C)c1` (configuration not stated): the LC retention time was 7.44 min.

For `COc1ccc(CC(C)NCC(O)c2ccc(O)c(NC=O)c2)cc1.COc1ccc(CC(C)NCC(O)c2ccc(O)c(NC=O)c2)cc1.O=C(O)C=CC(=O)O` (configuration not stated), the LC retention time is 7.62 min.

Turning to `CC1NCCOC1c1ccccc1` (configuration not stated), the LC retention time is 4.89 min.

Take `CC(Cc1ccccc1)N(C)Cc1ccco1` (configuration not stated): the LC retention time was 14.8 min.

On to `CCCC(C(=O)c1ccc2c(c1)OCO2)N1CCCC1` (configuration not stated), for which the LC retention time was 8.97 min.

Turning to `CCN(CC)C(=O)Nc1ccc(OCC(O)CNC(C)(C)C)c(C(C)=O)c1` (configuration not stated), the LC retention time is 8.15 min.

As to `CCCCNc1cc(C(=O)O)cc(S(N)(=O)=O)c1Oc1ccccc1`, the LC retention time was 9.25 min.

For `CNC(C)Cc1ccc2c(c1)OCO2` (configuration not stated), the LC retention time is 5.12 min.

Regarding `NC(=O)N1c2ccccc2C=Cc2ccccc21`, the LC retention time is 10.7 min.

`CC(=O)CC(c1ccccc1)c1c(O)c2ccccc2oc1=O` (configuration not stated): the LC retention time was 9.01 min.

Consider `CCCCCC(C)N` (configuration not stated), for which the LC retention time is 6.13 min.

On to `C=CCc1ccccc1OCC(O)CNC(C)C` (configuration not stated), for which the LC retention time is 10.1 min.

Consider `CCOC(=O)C1(c2ccccc2)CCN(C)CC1`, for which the LC retention time is 8.8 min.
